Values quoted from earlier work, collected in patent US20160083345A1, “POLYMORPHIC FORMS OF LOMITAPIDE AND ITS SALTS AND PROCESSES FOR THEIR PREPARATION” (CADILA HEALTHCARE LIMITED, priority 2014, published 2016).
Where a name gives a salt, the structure may show the parent alone. Read-outs that look alike come from different tables or passages of the source.

solubility (1-octanol): sparingly soluble
solubility (2-butanol): soluble
solubility (2-propanol): sparingly soluble
solubility (acetone): freely soluble
solubility (acetonitrile): soluble
solubility (aqueous solutions of pH 2 to 5): slightly soluble
solubility (ethanol): freely soluble
solubility (ethyl acetate): slightly soluble
solubility (heptane): insoluble
solubility (methanol): freely soluble
solubility (methylene chloride): soluble
Structure (SMILES): O=C(NC1CCN(CCCCC2(C(=O)NCC(F)(F)F)c3ccccc3-c3ccccc32)CC1)c1ccccc1-c1ccc(C(F)(F)F)cc1 [Lomitapide mesylate, N-(2,2,2-trifluoroethyl)-9-[4-[4-[[[4′(trifluoromethyl)[1,1′-biphenyl]-2-yl]carbonyl]amino]-1-piperidinyl]butyl]-9H-fluorene-9carboxamide methanesulfonate]
